What all share (assay type): cell-based, human
The test system of one experiment is HaCat keratinocytes. In words: scratch wound haptotaxis induced by LPA and clustering of α6β4 integrin. To be noted: LPA + α6β4 clustered with mAb 3E1 and secondary antibody, AG825 10 μM, Iressa 1 μM. The source says:
FIG. 6A-D. Sdc1 is required for HER2/α6β4-dependent HaCat keratinocyte migration. (FIG. 6A) HaCat keratinocytes deposit laminin 332 (LN332) and migrate upon this using α3β1 and α6β4 integrins to close a scratch wound in the monolayer when stimulated to undergo chemotaxis in response to EGF. Alternatively, migration is induced by clustering the integrin (using mAb 3E1 against the integrin+a secondary antibody to cluster the first antibody and thus the entire complex) in the presence of LPA. This mimics the clustering that occurs when the cells engage LN332 and is referred to as haptotaxis. […] (FIG. 6B) Haptotaxis, stimulated by LPA and clustering of α6β4 integrin as described in FIG. 6A, is blocked by antibody directed against the α3β1 integrin or by BM165 which targets the binding site for α3β1 in LN332. […] (FIG. 6C) The potential roles of Sdc1 or Sdc4 in haptotaxis is tested by silencing their expression, together with attempting to rescue with either wild-type mouse Sdc1 or Sdc4, or mouse mutants unable to engage the β4 cytoplasmic domain (mSdc1ΔC2 or mSdc4ΔC2). Haptotaxis is blocked by silencing endogenous Sdc1, and this cannot be rescued by Sdc1ΔC2 that fails to engage the α6β4 integrin. Silencing Sdc4 also disrupts migration, but this traces to its role in activity of the α3β1 integrin and not a role in engaging the α6β4 integrin, as it can be rescued by mSdc4ΔC2 that fails to associate with the α6β4 integrin. (FIG. 6D) Immunoprecipitation of either native mSdc4 or mSdc4[…]C2 confirms that the mSdc4ΔC2 mutant no longer associates with the α6β4 integrin, but does with the α3β1 integrin. […]
HaCat or MCF10A cells were grown to confluence on 48 well-plates were starved for 6 hr by serum deprivation followed by introduction of a scratch wound in the monolayer using 200 μl pipette tip. […] Images were acquired using a PlanApo 20 (0.75 numerical aperture) objective and a Photometrics CoolSnap ES camera on a Nikon Eclipse TE2000U microscopy system and wound closure quantified. […]

The subject of another experiment is SCC25 cells. In words: total cell number, CellTiterGLO assay. To be noted: 4 or 7 days. The method, then: (§1) FIGS. 11A-F. SSTN treatment of normal (nontransformed) epithelial cells versus carcinoma (transformed) cells. Cells are plated for one day, then treated with either 3-30 μM […] (SSTN-I), 3-30 μM […] (SSTN-E), 3-30 μM SSTNHER2 (SSTN-H) or combinations of the three peptides, each at 10 μM to test their additive effect. […] The treatment times are chosen to reflect only modest effects of the peptides used singly, so that the more pronounced effect of peptides used in combination can still be observed. Treatment for longer times leads to significant cell death observed even with single peptides alone. (FIG. 11A) HaCat human keratinocytes, an example of a normal stratified epithelium, (FIG. 11B) UM-SCC47 cells, a squamous cell carcinoma derived from the tongue of a patient (a stratrified epithelium), (FIG. 11C) SCC25 cells, another squamous cell carcinoma from the tongue of a patient (FIG. 11D) MCF10A cells, a normal human breast epithelium, (FIG. 11E) MDA-MB-468 cells, a triple-negative (TN) breast carcinoma, and (FIG. 11F) SKBr3 cells, a HER2+ human breast carcinoma. Note that the “triple-negative” designation of the MDA-MB-468 carcinoma means the cells are negative for progesterone receptor, estrogen receptor and the HER2 kinase. Thus, they would not be expected to rely on HER2. Indeed, these cells are not affected by SSTNHER2, either alone or when combined with the other peptides. […] Nonetheless, the other three carcinomas are inhibited by SSTNHER2, and this is enhanced when SSTNHER2 is combined with the other SSTN peptides, leading to obvious cell death (e.g., the number of cells at the end of the experiment are less than at the beginning).
(§2) Cells (5×10^4/well in a 24-well plate) were treated with activated TAT-peptide ([…]; (SEQ ID NO:18)), inactivated TAT-peptide ([…]; (SEQ ID NO:19)) or GST fusion protein (GST, GST-S1ED or GST-S4ED). Cells death was observed by trypan blue staining or Cell Tilter-GLO Cell Viability Assay (Promega).

The subject of another experiment is SKBr3 cells. In words: total cell number, CellTiterGLO assay. To be noted: 4 or 7 days. The method, then:
as §1, §2

The next experiment deals with UM-SCC47 cells. In words: total cell number, CellTiterGLO assay. To be noted: 4 or 7 days. The method, then:
as §1, §2

The subject of a further experiment is MDA-MB-468 cells. In words: total cell number, CellTiterGLO assay. To be noted: 4 or 7 days. The method, then:
as §1, §2

The test system of a further experiment is MCF10A cells. In words: total cell number, CellTiterGLO assay. To be noted: single peptide, concentrations as high as 30 μM, 4 or 7 days. The procedure:
as §1, §2

As for “SSTNHER2: synthetic peptide of human Sdc1 ectodomain amino acids 210-240 (SEQ ID NO:3), inhibits Sdc1 coupling of HER2 to α6β4 integrin (DFTFETSGENTAVVAVEPDRRNQSPVDQGAT; listed as Homo sapiens)”, in the experiment on HaCat keratinocytes, the “haptotaxis (migration to close a scratch wound)” value is “blocks haptotaxis”. Further, the “total cell number, combination with the other SSTN peptides” value is reported as “enhanced” with SCC25 cells (each peptide at 10 μM); “enhanced” with SKBr3 cells (each peptide at 10 μM); “enhanced” in the experiment on UM-SCC47 cells (each peptide at 10 μM); “not affected” in the experiment with MDA-MB-468 cells (MDA-MB-468, each peptide at 10 μM). In addition, the proliferation and survival result in the experiment on SCC25 cells (single peptide 3-30 μM) was “target the proliferation and survival”; in the experiment with SKBr3 cells (single peptide 3-30 μM), “target the proliferation and survival”; with UM-SCC47 cells (single peptide 3-30 μM), “target the proliferation and survival”; in the experiment on MDA-MB-468 cells (MDA-MB-468 (triple-negative), single peptide 3-30 μM), “no effect”. For the same substance, the growth or survival result in the experiment with MCF10A cells is reported as “no effect”.

Source of the values: patent US10010581B2, “Syndecan peptides and polypeptides and uses thereof” (Wisconsin Alumni Research Foundation, priority 2012, dated 2018).
